The structures appear in SMILES notation.

This note sets out measurements from ChEMBL document CHEMBL1833951, “Diterpenes from the Hainan soft coral Lobophytum cristatum Tixier-Durivault” (J Nat Prod, 2011).

The test system of test [1] is HCT-116. As to the kind of experiment: Cytotoxicity against human HCT116 cells by SRB assay. In kind it is functional, cell-based.
In test [2] the test system is A549. As to the kind of experiment: Cytotoxicity against human A549 cells by MTT assay. The format is functional, cell-based.

Take `C=C(CCC=C(C)C)[C@H]1CC[C@]2(C)CCCC(=C)[C@H]2C1` [LOBOPHYTUMIN C]: the IC50 stood at 37.1 µM in test [1] and 35.7 µM in test [2].

Turning to `C=C(CCC=C(C)C)[C@H]1CC[C@@]2(C)CCC=C(C)[C@@H]2C1` [LOBOPHYTUMIN D], the half-maximal inhibitory concentration (IC50) in test [1] is 35.7 µM; in test [2], 36.7 µM.

On to `COC(=O)Nc1nc2cc(C(=O)c3cccs3)ccc2[nH]1` [NOCODAZOLE], for which the IC50 in test [1] was determined as 0.173 µM; in test [2], 0.087 µM.
